According to patent publication US9144557B2, “Hematopoietic growth factor mimetic small molecule compounds and their uses” (Ligand Pharmaceuticals Inc., priority 2009, dated 2015):

Test system: UT7/EPO Cell line
Assay: Cell Proliferation Assay (UT7/EPO, ViaLight Plus)
Format: cell-based, human
Details: proliferative effect; compounds at 10 uM; UT7/EPO cells starved of EPO overnight; 72 hours at 37° C.; ViaLight Plus kit
Method: The primary testing for the examplfied compounds was performed in UT7/EPO Cell line. UT7/EPO is human leukemia cell line, obtained from Dr. Norio Komatsu (Blood, Vol 82 (2), pp 456-464, 1993). These cells express endogenous EPO receptor and are dependant upon EPO for growth and proliferation. Briefly, the cells were starved of EPO overnight and plated in 96 or 384 well plates. The compounds were added to the cells at 10 uM concentration. The plates were then incubated at 37° C. for 72 hours. The proliferative effect of the compounds was measured by a commercially available kit from Lonza (ViaLight Plus).

Point of comparison: `CN(C)c1ccc(C(=O)Nc2ccc(-n3ncc4cc(NC(=O)C5CC5)ccc43)cc2)cc1` [Compound 384, N-(4-(5-(cyclopropanecarboxamido)-1H-indazol-1-yl)phenyl)-4-(dimethylamino)benzamide], “Activity (%)” value 11%. Against it:
- O=C(Nc1ccc2[nH]c(-c3ccc(N4CCOCC4)nc3)nc2c1)c1ccc(N2CCOCC2)cc1 [Compound 256, 4-morpholino-N-(2-(6-morpholinopyridin-3-yl)-1H-benzo[d]imidazol-5-yl)benzamide] — higher, 12%
- COc1ccc(/C=C/c2nc3cc(-c4ccc5nc(/C=C/c6ccc(OC)cc6)[nH]c5c4)ccc3[nH]2)cc1 [Compound 262, 2,2′-bis((E)-4-methoxystyryl)-1H,3′H-5,5′-bibenzo[d]imidazole] — higher, 20%
- O=C(Nc1ccc2[nH]c(-c3cccc(-c4nc5cc(NC(=O)c6ccc(N7CCCC7)cc6)ccc5[nH]4)c3)nc2c1)c1ccc(N2CCCC2)cc1 [Compound 268, N,N′-(2,2′-(1,3-phenylene)bis(1H-benzo[d]imidazole-5,2-diyl))bis(4-(pyrrolidin-1-yl)benzamide)] — higher, 15%
- CN(C)c1ccc(-c2nc3cc(NC(=O)c4ccc(C(=O)NN)cc4)ccc3[nH]2)cc1 [Compound 273, N-(2-(4-(dimethylamino)phenyl)-1H-benzo[d]imidazol-5-yl)-4-(hydrazinecarbonyl)benzamide] — higher, 16%
- COc1cccc(/C=N/NC(=O)c2ccc(C(=O)Nc3ccc4nc(-c5ccc(N(C)C)cc5)[nH]c4c3)cc2)c1 [Compound 278, (E)-N-(2-(4-(dimethylamino)phenyl)-1H-benzo[d]imidazol-6-yl)-4-(2-(3-methoxybenzylidene)hydrazinecarbonyl)benzamide] — higher, 23%
- CN(C)c1ccc(-c2nc3cc(C(=O)Nc4ccc(NC(=O)c5ccc6[nH]c(-c7ccc(N(C)C)cc7)nc6c5)cc4)ccc3[nH]2)cc1 [Compound 283, N,N′-(1,4-phenylene)bis(2-(4-(dimethylamino)phenyl)-1H-benzo[d]imidazole-5-carboxamide)] — higher, 19%
- O=C(Nc1ccc2[nH]c(-c3ccc(N4CCOCC4)cc3)nc2c1)c1ccc2nc(-c3ccc(N(CCO)CCO)cc3)[nH]c2c1 [Compound 288, 2-(4-(bis(2-hydroxyethyl)amino)phenyl)-N-(2-(4-morpholinophenyl)-1H-benzo[d]imidazol-5-yl)-1H-benzo[d]imidazole-6-carboxamide] — higher, 17%
- N#Cc1ccc(-c2nc3ccc(C(=O)Nc4ccc5[nH]c(-c6ccc(OCCO)cc6)nc5c4)cc3[nH]2)cc1 [Compound 294, 2-(4-cyanophenyl)-N-(2-(4-(2-hydroxyethoxy)phenyl)-1H-benzo[d]imidazol-5-yl)-1H-benzo[d]imidazole-6-carboxamide] — the same, 11%
- O=C(Nc1ccc2[nH]c(-c3ccc(N4CCOCC4)cc3)nc2c1)c1ccc2nc(-c3ccc(OCCO)cc3)[nH]c2c1 [Compound 299, 2-(4-(2-hydroxyethoxy)phenyl)-N-(2-(4-morpholinophenyl)-1H-benzo[d]imidazol-5-yl)-1H-benzo[d]imidazole-6-carboxamide] — higher, 15%
- CN(C)c1ccc(C(=O)Nc2ccc(C(O)c3ccc(NC(=O)c4ccc(N(C)C)cc4)cc3)cc2)cc1 [Compound 305, N,N′-((hydroxymethylene)bis(4,1-phenylene))bis(4-(dimethylamino)benzamide)] — higher, 18%
- CN(C)c1ccc(C(=O)Nc2ccc(C(=NOC(=O)Cc3ccccc3)c3ccc(NC(=O)c4ccc(N(C)C)cc4)cc3)cc2)cc1 [Compound 310, N,N′-((((2-phenylacetoxy)imino)methylene)bis(4,1-phenylene))bis(4-(dimethylamino)benzamide)] — higher, 22%
- CON=C(c1ccc(NC(=O)c2ccc(N3CCC(O)C3)cc2)cc1)c1ccc(NC(=O)c2ccc(N3CCC(O)C3)cc2)cc1 (centres unmarked) [Compound 315, N,N′-(((methoxyimino)methylene)bis(4,1-phenylene))bis(4-(3-hydroxypyrrolidin-1-yl)benzamide)] — higher, 16%
- O=C(Nc1ccc(C(=O)c2ccc(NC(=O)c3ccc(N4CCCCC4)cc3)cc2)cc1)c1ccc(N2CCCCC2)cc1 [Compound 322, N,N′-(carbonylbis(4,1-phenylene))bis(4-(piperidin-1-yl)benzamide)] — higher, 20%
- O=C(Nc1ccc(C(=O)c2ccc(NC(=O)c3ccc(N(CCO)CCO)cc3)cc2)cc1)c1ccc(N(CCO)CCO)cc1 [Compound 327, N,N′-(carbonylbis(4,1-phenylene))bis(4-(bis(2-hydroxyethyl)amino)benzamide)] — higher, 17%
- CON=C(c1ccc(NC(=O)c2ccc(N(C)CCO)cc2)cc1)c1ccc(NC(=O)c2ccc(N(C)CCO)cc2)cc1 [Compound 332, N,N′-(((methoxyimino)methylene)bis(4,1-phenylene))bis(4-((2-hydroxyethyl)(methyl)amino)benzamide)] — higher, 18%
- CON=C(c1ccc(NC(=O)c2ccc(N3CCN(C(=O)C4CC4)CC3)cc2)cc1)c1ccc(NC(=O)c2ccc(N3CCN(C(=O)C4CC4)CC3)cc2)cc1 [Compound 338, N,N′-(((methoxyimino)methylene)bis(4,1-phenylene))bis(4-(4-(cyclopropanecarbonyl)piperazin-1-yl)benzamide)] — higher, 19%
- O=C(Nc1ccc(C(=O)c2ccc(NC(=O)c3ccc4[nH]ccc4c3)cc2)cc1)c1ccc2[nH]ccc2c1 [Compound 345, N,N′-(4,4′-Carbonylbis(4,1-phenylene))bis(1H-indole-5-carboxamide)] — higher, 19%
- CC(=O)Nc1ccc(C(=O)c2ccc(NC(=O)c3ccc4c(ccn4C)c3)cc2)cc1 [Compound 349] — the same, 11%
- CN(C)c1ccc(C(=O)Nc2ccc(C(=O)c3ccc(NC(=O)c4ccc(F)cc4)cc3)cc2)cc1 [Compound 354, 4-(Dimethylamino)-N-(4-(4-(4-fluorobenzamido)benzoyl)phenyl)benzamide] — higher, 20%
- O=C(Nc1ccc(C(=O)c2ccc(NC(=O)C3CC3)cc2)cc1)c1ccc(N2CCOCC2)cc1 [Compound 359] — higher, 19%
- O=C(Nc1ccc(Nc2ccc(NC(=O)c3ccc(N4CCC(O)CC4)cc3)cc2)cc1)c1ccc(N2CCC(O)CC2)cc1 [Compound 364, N,N′-(4,4′-Azanediylbis(4,1-phenylene))bis(4-(4-hydroxypiperidino)benzamide)] — higher, 16%
- CN(C)c1ccc(C(=O)Nc2ccc(-n3ccc4cc(NC(=O)c5ccc(N(C)C)cc5)ccc43)cc2)cc1 [Compound 370, N-(1-(4-(4-Dimethylaminobenzamido)phenyl)-1H-indol-5-yl)-4-dimethylaminobenzamide] — higher, 18%
- CN(C)c1ccc(C(=O)Nc2ccc3c(cnn3-c3ccc(NC(=O)c4ccccc4)cc3)c2)cc1 [Compound 375, N-(1-(4-Benzamidophenyl)-1H-indazol-5-yl)-4-dimethylaminobenzamide] — the same, 11%
- Nc1ccc(-n2ncc3cc(NC(=O)c4ccc(N5CCOCC5)cc4)ccc32)cc1 [Compound 381, N-(1-(4-Aminophenyl)-1H-indazol-5-yl)-4-morpholinobenzamide] — higher, 15%
- N#Cc1ccc(-n2ncc3cc(NC(=O)c4ccc(N5CCC(O)CC5)cc4)ccc32)cc1 [Compound 404, N-(1-(4-Cyanophenyl)-1H-indazol-5-yl)-4-(4-hydroxypiperidino)benzamide] — higher, 14%
- CN(C)c1ccc(C(=O)Nc2ccc(Sc3ccc(NC(=O)c4ccc(N(C)C)cc4)cc3)cc2)cc1 [Compound 408, N,N′-(4,4′-Thiobis(4,1-phenylene))bis(4-(dimethylamino)benzamide)] — higher, 13%
- O=C(Nc1ccc2[nH]c(-c3ccc(N4CCC5(CC4)OCCO5)cc3)nc2c1)c1ccc(N2CCOCC2)cc1 [Compound 413, N-(2-(4-(1,4-Dioxa-8-azaspiro[4,5]decan-8-yl)phenyl)-1H-benzimidazol-5-yl)-4-morpholinobenzamide] — higher, 19%
- O=C(Nc1ccc2[nH]c(-c3ccc(N4CCOCC4)s3)nc2c1)c1ccc(N2CCOCC2)cc1 [Compound 418, N-(2-(2-Morpholinothien-5-yl)-1H-benzimidazol-5-yl)-4-morpholinobenzamide] — the same, 11%
- CN1CCN(c2ccc(-c3nc4cc(NC(=O)c5ccc(N6CCOCC6)cc5)ccc4[nH]3)cc2)CC1 [Compound 423, N-(2-(4-(4-Methylpiperazino)phenyl)-1H-benzimidazol-5-yl)-4-morpholinobenzamide] — higher, 15%
- O=C(Nc1ccc2[nH]c(-c3ccc(N4CCOCC4)cc3)nc2c1)c1ccccc1O [Compound 427, N-(2-(4-Morpholinophenyl)-1H-benzimidazol-5-yl)-2-hydroxybenzamide] — higher, 15%
- O=C(Nc1ccc2[nH]c(-c3ccc(N4CCOCC4)cc3)nc2c1)C(=O)Nc1ccc2nc(-c3ccc(N4CCOCC4)cc3)[nH]c2c1 [Compound 434, N,N′-bis-(2-(4-Morpholinophenyl)-1H-benzimidazol-5-yl)oxalamide] — higher, 15%
- COc1cccc(Nc2nc3cc(NC(=O)c4ccc5[nH]c(-c6ccc(N(C)C)cc6)nc5c4)ccc3[nH]2)c1 [Compound 439, N-(2-(3-Methoxyphenyl)amino-1H-benzimidazol-5-yl)-2-(4-dimethylaminophenyl)-1H-benzimidazole-5-carbamide] — higher, 18%
- COc1ccc(-c2nc3cc(NC(=O)c4ccc(NC(=O)c5ccc(N(C)C)cc5)cc4)ccc3[nH]2)cc1 [Compound 444, 4-(dimethylamino)-N-(4-((2-(4-methoxyphenyl)-1H-benzo[d]imidazol-5-yl)carbamoyl)phenyl)benzamide] — higher, 19%
- CS(=O)(=O)Nc1ccc2[nH]c(-c3ccc(C(=O)Nc4ccc(N5CCOCC5)cc4)cc3)nc2c1 [Compound 449] — higher, 16%
